# Measurements: publication PMC4228444 (BMC Complementary and Alternative Medicine, 2013)
# Columns and labels:
# P. acnes [1] = system: P. acnes; set-up: method as in doi:10.1021/jf00030a036; conditions: cited from earlier work
# [2] = system: Propionibacterium acnes (ATCC 11827); test: Antibacterial activity, broth microdilution MIC (INT colour change); format: cell-based; conditions: P. acnes, 72 h anaerobic; for MIC: Cutibacterium acnes, ATCC11827, 72 h
# Procedure: The ethanol extract and compounds were tested against P. acnes by determining the minimum inhibitory concentration (MIC) values obtained by a microdilution method as previously described with few modifications. Briefly, the bacteria was cultured from a Kwik-Stick on nutrient agar and incubated at 37°C for 72 h under anaerobic conditions before the assay. The 72 h culture of the bacteria was dissolved in nutrient broth and the suspension was adjusted to 0.5 McFarland standard turbidity. […] In a sterile 96-well plate, 100 μl of samples from the stock solution consisting of the plant extract/isolated compounds (2 mg/ml in 10% dimethyl sulphoxide (DMSO)) and the positive control tetracycline (0.2 mg/ml) were diluted with broth. Twofold serial dilutions were made in broth over a range to give concentrations of 500–3.9 μg/ml and 50–0.3 and μg/ml for the plant extract/ isolated compounds and positive control tetracycline, respectively. The bacterial suspension (100 μl) was then added to the wells. The wells with 2.5% DMSO and bacterial suspension without samples served as the solvent and negative controls, respectively. The plates were incubated at 37°C for 72 h in an anaerobic environment.
# P. acnes [3] = test: Transmission electron microscopy of treated P. acnes; format: cell-based, Propionibacterium acnes; conditions: 50 μg/ml, 72 h
# Procedure: The TEM procedures followed the protocol of a previous publication. Briefly, bacteria was concentrated by centrifugation at 10 000 rpm for 1 min. The pellet was resuspended in nutrient broth to a final OD550 nm of 1. […] The bacterial suspension (5 ml) was mixed with plant extract and pure compound to a final concentration of 300 and 100 μg/ml for plant extract and 50 μg/ml for pure compound. Tetracycline (50 μg/ml) and DMSO (2.5%) were used as positive and solvent control, respectively. The pathogen was treated for 72 h; the control group consisted of only bacterial suspension in nutrient broth. Treated and untreated P. acnes cultures were centrifuged and fixed in 2.5% glutraldehyde in phosphate buffer at room temperature for 1 h. Samples were washed with phosphate buffer and postfixed in both 1% osmium tetraoxide and uranyl acetate. The cells were dehydrated in ethanol and embedded in quetol resin. Thin sections were prepared with a microtome and micrographs were taken using a JEOL JEM-2100 F field emission electron microscope.
# DPPH antioxidant assay = format: biochemical; conditions: for Antioxidant IC50 / IC50: DPPH; for Antioxidant IC50: 550 nm; for IC50: value in brackets
# Procedure: Antioxidant activity of the ethanol extract of S. jambos and compounds was investigated using 1,2-diphenyl-1-picrylhydrazyl (DPPH) antioxidant assay. Following the procedures as described by DuToit et al. for each sample, a dilution series (8 dilutions) was prepared in a 96 well plate by adding distilled water as a dilution medium. Final concentration of the samples ranged from 100 to 0.7 μg/ml. Each concentration was tested in triplicate. Vitamin C was used as a positive control. […] The radical scavenging activity was measured in terms of the amount of antioxidants necessary to decrease the initial DPPH absorbance by 50% (IC50). The IC50 value of each sample was determined graphically by plotting the absorbance of DPPH as a function of the sample concentration in μg/ml. The IC50 is the amount of antioxidant necessary to decrease the initial DPPH absorbance by 50%. The results are expressed as the mg vitamin C equivalents/g dry weight and calculated as follows: […]
# IL 8 = IL 8 release from U937 cells stimulated with heat-killed P. acnes (ELISA); format: cell-based, human; conditions: for Inhibitory ratio (%) IL 8: 18 h
# Procedure: (§1) Briefly, the log phase culture of P. acnes was harvested, washed three times with phosphate buffer saline (PBS), and incubated at 80°C for 30 min to kill the bacteria. The heat-killed bacteria were stored at 4°C until use. […] Pentoxifylline was used as a control. […] Cytokine standards were serially diluted to facilitate the construction of calibration curves necessary for determining protein concentration after treatment with test samples. The ratio (%) of inhibition of the cytokine release was calculated using the following equation: […] Where T represents the concentration of the cytokine in the culture supernatant with the test sample, and C represents the concentration of cytokine in the culture supernatant with the solvent.
# TNF α = TNF α release from U937 cells stimulated with heat-killed P. acnes (ELISA); format: cell-based, human; conditions: for Inhibitory ratio (%) TNF α: 18 h
# Procedure: as §1
# [4] = at the highest concentration tested
molecule,measurement,setting,value
CCCCCCCCCCCCCCCc1cccc(O)c1C(=O)O [pentadecyl salicylic acid],MIC,P. acnes [1],0.78 µg/mL
"CN(C)[C@@H]1C(O)=C(C(N)=O)C(=O)[C@@]2(O)C(O)=C3C(=O)c4c(O)cccc4[C@@](C)(O)[C@H]3C[C@@H]12 [tetracycline, reference compound]",MIC,[2]; 37°C,3.1 µg/mL
same,MIC,[2]; value in brackets,7 µM
same,TEM: cell injury to P. acnes,P. acnes [3],significant damages to the cells of P. acnes
"O=C1O[C@H]([C@@H](O)CO)C(O)=C1O [vitamin C, reference compound]",Antioxidant IC50,DPPH antioxidant assay,1.9 µg/mL
same,IC50,DPPH antioxidant assay,11.3 µM
myricitrin,Antibacterial MIC,[2]; 37°C,Na (not active at the highest concentration tested (500 μg/ml))
same,Antibacterial MIC,"[2]; 37°C, listed as myricitrin",> 500 µg/mL
same,Antioxidant IC50,DPPH antioxidant assay,1.8 µg/mL
same,IC50,DPPH antioxidant assay,4 µM
same,Antioxidant Mg Vit C equivalents/g dry weight,DPPH antioxidant assay; IC50 vit C/IC50 sample × 1000,1081.0 Mg Vit C equivalents/g dry weight
same,Suppression of IL 8 release (range stated jointly for IL 8 and TNF α),IL 8; abstract summary,74 - 99%
same,Inhibition of IL 8 in words,IL 8; [4],significant inhibition
same,Inhibitory ratio (%) IL 8,IL 8; final concentration 10 μg/ml,40.6%
same,Inhibitory ratio (%) IL 8,IL 8; final concentration 50 μg/ml,94.3%
same,Inhibitory ratio (%) IL 8,IL 8; final concentration 100 μg/ml,99.6%
same,Suppression of TNF α release (range stated jointly for IL 8 and TNF α),TNF α; abstract summary,74 - 99%
same,Inhibition of TNF α in words,TNF α; [4],significant inhibition
same,Inhibitory ratio (%) TNF α,TNF α; final concentration 10 μg/ml,32.8%
same,Inhibitory ratio (%) TNF α,TNF α; final concentration 50 μg/ml,99.7%
same,Inhibitory ratio (%) TNF α,TNF α; final concentration 100 μg/ml,99.7%
pentadecadienyl salicylic acid,MIC,P. acnes [1],0.78 µg/mL
pentadecatrienyl salicylic acid,MIC,P. acnes [1],0.78 µg/mL
pentadecenyl salicylic acid,MIC,P. acnes [1],0.78 µg/mL
